According to patent publication US8653088B2, “Compositions useful as inhibitors of protein kinases” (Vertex Pharmaceuticals Incorporated, priority 2003, dated 2014):

Target: GSK-3β (AA 1-420) (Homo sapiens, UniProt P49841)
Experiment: Inhibition of GSK-3, standard coupled enzyme system
Format: biochemical
Conditions: 20 μM ATP, 300 μM peptide, 20 nM GSK-3β, 30° C.
Procedure: Compounds were screened for their ability to inhibit GSK-3β (AA 1-420) activity using a standard coupled enzyme system (Fox et al. Protein Sci. 7, p. 2249 (1998)). Reactions were carried out in a solution containing 100 mM HEPES (pH 7.5), 10 mM MgCl2, 25 mM NaCl, 300 μM NADH, 1 mM DTT and 1.5% DMSO. Final substrate concentrations in the assay were 20 μM ATP (Sigma Chemicals, St Louis, Mo.) and 300 μM peptide (American Peptide, Sunnyvale, Calif.). Reactions were carried out at 30° C. and 20 nM GSK-3β. Final concentrations of the components of the coupled enzyme system were 2.5 mM phosphoenolpyruvate, 300 μM NADH, 30 μg/ml pyruvate kinase and 10 μg/ml lactate dehydrogenase.
An assay stock buffer solution was prepared containing all of the reagents listed above with the exception of ATP and the test compound of interest. The assay stock buffer solution (175 μl) was incubated in a 96 well plate with 5 μl of the test compound of interest at final concentrations spanning 0.002 μM to 30 μM at 30° C. for 10 min. Typically, a 12 point titration was conducted by preparing serial dilutions (from 10 mM compound stocks) with DMSO of the test compounds in daughter plates. The reaction was initiated by the addition of 20 μl of ATP (final concentration 20 μM). Rates of reaction were obtained using a Molecular Devices Spectramax plate reader (Sunnyvale, Calif.) over 10 min at 30° C. The Ki values were determined from the rate data as a function of inhibitor concentration.

Sequence of GSK-3β (AA 1-420) (P49841 whole entry, species assumed, the tested form may be a part): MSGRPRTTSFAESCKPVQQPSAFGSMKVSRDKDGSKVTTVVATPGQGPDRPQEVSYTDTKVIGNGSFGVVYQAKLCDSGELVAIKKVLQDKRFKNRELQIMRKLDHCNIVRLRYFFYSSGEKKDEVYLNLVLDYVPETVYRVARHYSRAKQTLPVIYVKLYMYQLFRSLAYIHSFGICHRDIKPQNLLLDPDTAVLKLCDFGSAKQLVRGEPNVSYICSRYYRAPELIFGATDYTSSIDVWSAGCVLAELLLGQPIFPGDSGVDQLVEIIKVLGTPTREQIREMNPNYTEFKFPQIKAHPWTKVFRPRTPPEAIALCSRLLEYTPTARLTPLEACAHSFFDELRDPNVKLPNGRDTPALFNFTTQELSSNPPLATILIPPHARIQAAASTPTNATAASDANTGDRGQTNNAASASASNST

Row | SMILES | Ki
1 | COc1cccc(-n2nc3c(N)n[nH]c3cc2=O)c1 [Compound I-1] | < 4 µM
2 | Nc1n[nH]c2cc(=O)n(-c3ccccc3)nc12 [Compound I-2] | < 4 µM
3 | Nc1n[nH]c2cc(=O)n(-c3ccc(Oc4ccccc4)cc3)nc12 [Compound I-4] | < 4 µM
4 | Cc1ccc(-n2nc3c(N)n[nH]c3cc2=O)cc1 [Compound I-5] | < 4 µM

Second part, the compound after the results:

Row | Ki | SMILES
5 | < 4 µM | COc1cc2ncnc(Nc3n[nH]c4cc(=O)n(-c5cccc(C(F)(F)F)c5)nc34)c2cc1OC [Compound I-6]
6 | < 4 µM | Nc1n[nH]c2cc(=O)n(-c3cccc([N+](=O)[O-])c3)nc12 [Compound I-7]
7 | < 4 µM | Nc1n[nH]c2cc(=O)n(-c3cccc(Cl)c3)nc12 [Compound I-8]
8 | < 4 µM | Nc1n[nH]c2cc(=O)n(-c3cccc(S(N)(=O)=O)c3)nc12 [Compound I-9]
